Data as given in PubChem BioAssay AID248 (DTP/NCI, 2004).
Values joined by “and” are separate entries in the source; they are usually repeats but may differ in a detail not shown here. Equal values may be shown once. Toxic doses and inconclusive results are not listed. No stated cut-off is given here; in the data, active means T/C of 150% or more; inactive means T/C below 125%.

Tested on: L1210 leukemia ip in BDF1 mice, survival T/C
Experiment: NCI In Vivo Anticancer Drug Screen. Data for tumor model L1210 Leukemia (intraperitoneal) in B6D2F1 (BDF1) mice
Details: endpoint: mean survival time, higher = longer survival
Method in brief: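 Read-out is survival time, reported as the treated-group measurement over the vehicle-control measurement.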

[1] = dose: 100.0 mg/kg/injection, schedule: Q04DX003 (ip), vehicle: saline
[2] = dose: 50.0 mg/kg/injection, schedule: Q01DX009 (ip), vehicle: saline
[3] = dose: 100.0 mg/kg/injection, schedule: Q01DX009 (ip), vehicle: saline
[4] = dose: 100.0 mg/kg/injection, schedule: Q04DX002 (ip), vehicle: Klucel (hydroxypropylcellulose) (HPC)

Measured: T/C

O=[N+]([O-])c1cc(S(=O)(=O)OCC2CO2)ccc1Cl (stereo not given)
inactive: dose: 6.25 mg/kg/injection, schedule: Q04DX003 (ip), vehicle: Klucel (hydroxypropylcellulose) (HPC) 98 % of control | dose: 12.5 mg/kg/injection, schedule: Q01DX009 (ip), vehicle: Klucel (hydroxypropylcellulose) (HPC) 96 % of control | dose: 12.5 mg/kg/injection, schedule: Q04DX003 (ip), vehicle: Klucel (hydroxypropylcellulose) (HPC) 98 % of control | dose: 25.0 mg/kg/injection, schedule: Q01DX009 (ip), vehicle: Klucel (hydroxypropylcellulose) (HPC) 90 % of control | dose: 25.0 mg/kg/injection, schedule: Q04DX003 (ip), vehicle: Klucel (hydroxypropylcellulose) (HPC) 101 % of control | dose: 50.0 mg/kg/injection, schedule: Q04DX003 (ip), vehicle: Klucel (hydroxypropylcellulose) (HPC) 103 % of control

O=c1[nH]c(=O)n2ncnc2[nH]1
inactive: [1] 100 % of control | dose: 200.0 mg/kg/injection, schedule: Q04DX003 (ip), vehicle: saline 100 % of control | dose: 400.0 mg/kg/injection, schedule: Q04DX003 (ip), vehicle: saline 96 % of control

CCCCCCCCCCCCNCCCCCCCCCCCC
inactive: dose: 3.12 mg/kg/injection, schedule: Q01DX009 (ip), vehicle: saline 102 % of control | dose: 6.25 mg/kg/injection, schedule: Q01DX009 (ip), vehicle: saline 97 % of control | dose: 6.25 mg/kg/injection, schedule: Q04DX003 (ip), vehicle: acetone 100 % of control | dose: 12.5 mg/kg/injection, schedule: Q01DX001 (ip), vehicle: saline 93 % of control | dose: 12.5 mg/kg/injection, schedule: Q01DX009 (ip), vehicle: saline 102 % of control | dose: 12.5 mg/kg/injection, schedule: Q04DX003 (ip), vehicle: acetone 96 % of control | dose: 25.0 mg/kg/injection, schedule: Q01DX001 (ip), vehicle: saline 93 % of control | dose: 100.0 mg/kg/injection, schedule: Q01DX009 (ip), vehicle: other 105 % of control | dose: 200.0 mg/kg/injection, schedule: Q01DX009 (ip), vehicle: other 105 % of control | dose: 400.0 mg/kg/injection, schedule: Q01DX009 (ip), vehicle: other 93 % of control

O=C1CC(C(=O)O)c2ccccc21 (stereo not given)
inactive: [2] 93 % of control | [3] 90 % of control | dose: 200.0 mg/kg/injection, schedule: Q01DX009 (ip), vehicle: saline 93 % of control

Cc1ccc(S(=O)(=O)/C=C(\C=C/c2ccccc2)c2ccccc2)cc1
inactive: dose: 100.0 mg/kg/injection, schedule: Q04DX003 (ip), vehicle: acetone 95 % of control | dose: 200.0 mg/kg/injection, schedule: Q04DX003 (ip), vehicle: acetone 95 % of control

[Br][Sb]([Br])([c]1ccccc1)([c]1ccccc1)[c]1ccccc1
inactive: dose: 50.0 mg/kg/injection, schedule: Q01DX009 (ip), vehicle: Klucel (hydroxypropylcellulose) (HPC) 91 % of control | dose: 100.0 mg/kg/injection, schedule: Q01DX009 (ip), vehicle: Klucel (hydroxypropylcellulose) (HPC) 97 % of control | [4] 90 % of control | dose: 200.0 mg/kg/injection, schedule: Q04DX002 (ip), vehicle: Klucel (hydroxypropylcellulose) (HPC) 87 % of control

NC(=Nc1ccc(N)cc1)c1ccc(C(N)=Nc2ccc(N)cc2)cc1
inactive: dose: 2.5 mg/kg/injection, schedule: Q01DX015 (ip), vehicle: water 98 % of control | dose: 5.0 mg/kg/injection, schedule: Q01DX015 (ip), vehicle: water 100 % of control | dose: 10.0 mg/kg/injection, schedule: Q01DX015 (ip), vehicle: water 114 % of control | dose: 20.0 mg/kg/injection, schedule: Q01DX015 (ip), vehicle: water 100 % of control | dose: 36.7 mg/kg/injection, schedule: Q01DX015 (ip), vehicle: water 109 % of control | dose: 73.5 mg/kg/injection, schedule: Q01DX015 (ip), vehicle: water 105 % of control

O=C(OCCN1CCCC1)C(c1ccccc1)C1(O)CCCC1 (stereo not given)
inactive: dose: 25.0 mg/kg/injection, schedule: Q01DX009 (ip), vehicle: saline 103 % of control | dose: 25.0 mg/kg/injection, schedule: Q04DX003 (ip), vehicle: saline 104 % of control | [2] 102 % of control | dose: 50.0 mg/kg/injection, schedule: Q04DX003 (ip), vehicle: saline 101 % of control | [3] 117 % of control | [1] 96 % of control and 97 % of control

O=c1cc(Cc2ccc([N+](=O)[O-])cc2)[nH]c(=O)[nH]1
inactive: dose: 50.0 mg/kg/injection, schedule: Q01DX001 (ip), vehicle: saline 101 % of control | dose: 100.0 mg/kg/injection, schedule: Q01DX001 (ip), vehicle: saline 107 % of control | dose: 200.0 mg/kg/injection, schedule: Q01DX001 (ip), vehicle: saline 115 % of control | dose: 400.0 mg/kg/injection, schedule: Q01DX001 (ip), vehicle: saline 115 % of control

Cc1c(Cl)cccc1NC(=O)OC/C=C/c1ccccc1
inactive: dose: 100.0 mg/kg/injection, schedule: Q01DX001 (ip), vehicle: saline with Tween-80 93 % of control | dose: 100.0 mg/kg/injection, schedule: Q01DX009 (ip), vehicle: saline with Tween-80 101 % of control and 105 % of control | dose: 100.0 mg/kg/injection, schedule: Q04DX002 (ip), vehicle: saline with Tween-80 101 % of control and 114 % of control | dose: 100.0 mg/kg/injection, schedule: Q04DX003 (ip), vehicle: saline with Tween-80 91 % of control | dose: 200.0 mg/kg/injection, schedule: Q01DX001 (ip), vehicle: saline with Tween-80 93 % of control | dose: 200.0 mg/kg/injection, schedule: Q01DX009 (ip), vehicle: saline with Tween-80 94 % of control and 101 % of control | dose: 200.0 mg/kg/injection, schedule: Q04DX002 (ip), vehicle: saline with Tween-80 96 % of control and 106 % of control | dose: 200.0 mg/kg/injection, schedule: Q04DX003 (ip), vehicle: saline with Tween-80 93 % of control | dose: 400.0 mg/kg/injection, schedule: Q01DX001 (ip), vehicle: saline with Tween-80 88 % of control | dose: 400.0 mg/kg/injection, schedule: Q01DX009 (ip), vehicle: saline with Tween-80 94 % of control and 101 % of control | dose: 400.0 mg/kg/injection, schedule: Q04DX002 (ip), vehicle: saline with Tween-80 93 % of control and 97 % of control | dose: 400.0 mg/kg/injection, schedule: Q04DX003 (ip), vehicle: saline with Tween-80 98 % of control

CC12CCCCC1C(C(C)(C)OC(=O)c1ccc([N+](=O)[O-])cc1)CC2 (stereo not given)
inactive: dose: 25.0 mg/kg/injection, schedule: Q04DX002 (ip), vehicle: Klucel (hydroxypropylcellulose) (HPC) 105 % of control | dose: 50.0 mg/kg/injection, schedule: Q04DX002 (ip), vehicle: Klucel (hydroxypropylcellulose) (HPC) 99 % of control | [4] 89 % of control

NC(=O)n1cccn1
inactive: dose: 25.0 mg/kg/injection, schedule: Q01DX Z (ip), vehicle: carboxymethylcellulose (CMC) 100 % of control | dose: 50.0 mg/kg/injection, schedule: Q01DX Z (ip), vehicle: carboxymethylcellulose (CMC) 102 % of control | dose: 100.0 mg/kg/injection, schedule: Q01DX Z (ip), vehicle: carboxymethylcellulose (CMC) 102 % of control | dose: 200.0 mg/kg/injection, schedule: Q01DX Z (ip), vehicle: carboxymethylcellulose (CMC) 100 % of control and 109 % of control | dose: 400.0 mg/kg/injection, schedule: Q01DX Z (ip), vehicle: carboxymethylcellulose (CMC) 102 % of control

Clc1ccc(/C=C/c2ccccc2)cc1
inactive: dose: 44.0 mg/kg/injection, schedule: Q01DX001 (ip), vehicle: other 96 % of control | dose: 66.0 mg/kg/injection, schedule: Q01DX001 (ip), vehicle: other 105 % of control | dose: 100.0 mg/kg/injection, schedule: Q01DX001 (ip), vehicle: other 100 % of control | dose: 150.0 mg/kg/injection, schedule: Q01DX001 (ip), vehicle: other 97 % of control | dose: 200.0 mg/kg/injection, schedule: Q01DX001 (ip), vehicle: other 100 % of control | dose: 400.0 mg/kg/injection, schedule: Q01DX001 (ip), vehicle: other 111 % of control
